The IC50 is the concentration that gives 50% inhibition. The low end stands for greater potency in that assay, the high end for weaker potency in that assay.

The target in one assay is CXCR2 receptor (Homo sapiens (Human), UniProt P25025). Briefly: β-arrestin 2 recruitment test, PathHunter HEK293-CXCR2 cells stimulated with CXCL8. It counts as cell-based. The following applies: CXCL8 stimulation. The procedure: (§1) The in vitro affinity of the compounds of the present invention for the CXCR1 and CXCR2 receptors was determined on a functional test of the β-arrestin recruitment type after receptor activation.
(§2) β-Arrestin Recruitment Assay:
(§3) “PathHunter HEK293-CXCR2” or “U2OS hCXCR1 β-arrestin” cells (DiscoveRx Corporation) were seeded overnight at 10 000 cells/well (384-well format) in 20 μl of Opti MEM I medium. A preincubation with the antagonist or the vehicle for 30 min at 37° C. and 5% CO2 was followed by 60 minutes of stimulation with CXCL8 at 37° C. and 5% CO2. The cells were then placed at ambient temperature for 30 minutes. The PathHunter detection reagent (DiscoveRx Corporation) was added. […] The data were analyzed by means of a non-linear curve procedure using the XLFit4 exploitation software (IDBS) and the IC50 values were determined.

The target of the next assay is CXCR1 receptor (Homo sapiens (Human), UniProt P25024). Briefly: β-arrestin 2 recruitment test, U2OS hCXCR1 β-arrestin cells stimulated with CXCL8. Format: cell-based. To be noted: CXCL8 stimulation. The procedure: as §1, §2, §3
In general terms: Arrestin recruitment assays detect the binding of arrestin to an activated receptor.

Sequence of CXCR1 receptor (P25024 whole entry): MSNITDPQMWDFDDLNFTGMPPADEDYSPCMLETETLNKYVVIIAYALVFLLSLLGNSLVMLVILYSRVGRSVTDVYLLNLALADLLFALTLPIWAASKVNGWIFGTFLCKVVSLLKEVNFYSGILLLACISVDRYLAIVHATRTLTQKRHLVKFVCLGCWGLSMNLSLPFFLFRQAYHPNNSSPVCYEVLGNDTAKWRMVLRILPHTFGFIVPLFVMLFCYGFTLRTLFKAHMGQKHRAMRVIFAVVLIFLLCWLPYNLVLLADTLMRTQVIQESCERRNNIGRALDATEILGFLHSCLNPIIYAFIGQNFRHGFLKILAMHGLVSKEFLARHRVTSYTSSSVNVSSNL
Sequence of CXCR2 receptor (P25025 whole entry): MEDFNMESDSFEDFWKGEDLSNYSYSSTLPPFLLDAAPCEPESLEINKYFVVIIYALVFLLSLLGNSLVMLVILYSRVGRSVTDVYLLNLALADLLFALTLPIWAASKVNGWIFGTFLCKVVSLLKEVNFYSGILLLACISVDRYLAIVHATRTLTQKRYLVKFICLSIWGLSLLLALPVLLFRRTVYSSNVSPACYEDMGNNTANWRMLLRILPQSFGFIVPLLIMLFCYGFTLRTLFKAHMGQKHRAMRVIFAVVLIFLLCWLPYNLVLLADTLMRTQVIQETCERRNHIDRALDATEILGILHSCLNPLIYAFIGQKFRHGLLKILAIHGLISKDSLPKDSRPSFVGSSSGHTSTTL

Turning to `COc1ccc(C(Nc2c(Nc3cccc(C(=O)N(C)C)c3O)c(=O)c2=O)C2(C)COC2)cc1` (stereo not drawn) [Example 29, 3-(2-{[(3-methyloxetan-3-yl)-(4-methoxyphenyl)methyl]amino}-3,4-dioxocyclobut-1-enylamino)-2-hydroxy-N,N-dimethylbenzamide], at CXCR2 receptor, the concentration for half-maximal inhibition (IC50) turned out to be 433 nM.
At CXCR2 receptor, `Cc1ccc(C(Nc2c(Nc3cccc(C#N)c3O)c(=O)c2=O)C2(C)COC2)o1` (stereo not drawn) [Example 42, 2-hydroxy-3-(2-{[(5-methylfuran-2-yl)-(3-methyloxetan-3-yl)methyl]amino}-3,4-dioxocyclobut-1-enylamino)benzonitrile] returned an IC50 of 311 nM.
On to `CN(C)C(=O)c1cccc(Nc2c(NC(c3ccc4c(c3)OCO4)C3(C)COC3)c(=O)c2=O)c1O` (stereo not drawn) [Example 30, 3-(2-{[benzo[1,3]dioxol-5-yl-(3-methyloxetan-3-yl)methyl]amino}-3,4-dioxocyclobut-1-enylamino)-2-hydroxy-N,N-dimethylbenzamide], for which the IC50 against CXCR2 receptor was 349 nM; against CXCR1 receptor it was 2240 nM.
Take `Cc1ccc(C(Nc2c(Nc3ccc(Cl)nc3O)c(=O)c2=O)C2(C)COC2)o1` (stereo not drawn) [Example 40, 3-(6-chloro-2-hydroxypyridin-3-ylamino)-4-{[(5-methylfuran-2-yl)-(3-methyloxetan-3-yl)methyl]amino}cyclobut-3-ene-1,2-dione]: the IC50 on CXCR2 receptor is 502 nM; against CXCR1 receptor, 5220 nM.
Turning to `CN(C)C(=O)c1cccc(Nc2c(NC(c3cccs3)C3(C)COC3)c(=O)c2=O)c1O` (stereo not drawn) [Example 34, 2-hydroxy-N,N-dimethyl-3-(2-{[(3-methyloxetan-3-yl)thiophen-2-ylmethyl]amino}-3,4-dioxocyclobut-1-enylamino)benzamide], the IC50 was determined as 106 nM at CXCR2 receptor and 1610 nM at CXCR1 receptor.
On to `Cc1ccc(C(Nc2c(Nc3cccc(C(=O)N4CCOCC4)c3O)c(=O)c2=O)C2(C)COC2)o1` (stereo not drawn) [Example 15, 3-[2-hydroxy-3-(morpholine-4-carbonyl)phenylamino]-4-{[(5-methylfuran-2-yl)-(3-methyloxetan-3-yl)methyl]amino}cyclobut-3-ene-1,2-dione], for which the figures for the IC50 against CXCR2 receptor and on CXCR1 receptor were 626 nM and 3170 nM, respectively.
Turning to `Cc1ccc(C(Nc2c(Nc3cccc(C(=O)N4CC[C@@H](O)C4)c3O)c(=O)c2=O)C2(C)COC2)o1` (stereo partly drawn) [Example 5, 3-[2-hydroxy-3-((R)-3-hydroxypyrrolidine-1-carbonyl)phenylamino]-4-{[(5-methylfuran-2-yl)-(3-methyloxetan-3-yl)methyl]amino}cyclobut-3-ene-1,2-dione], the IC50 is 341 nM on CXCR2 receptor and 2620 nM against CXCR1 receptor.
Consider `Cc1ccc(C(Nc2c(Nc3cccn(C)c3=O)c(=O)c2=O)C2(C)COC2)o1` (stereo not drawn) [Example 19, 3-{[(5-methylfuran-2-yl)-(3-methyloxetan-3-yl)methyl]amino}-4-(1-methyl-2-oxo-1,2-dihydropyridin-3-ylamino)cyclobut-3-ene-1,2-dione], for which the concentration for half-maximal inhibition (IC50) against CXCR2 receptor is 394 nM; against CXCR1 receptor, 4960 nM.
Take `CN(C)C(=O)c1cccc(Nc2c(NC(c3ccco3)C3(C)COC3)c(=O)c2=O)c1O` (stereo not drawn) [Example 36, 3-(2-{[furan-2-yl-(3-methyloxetan-3-yl)methyl]amino}-3,4-dioxocyclobut-1-enylamino)-2-hydroxy-N,N-dimethylbenzamide]: the IC50 against CXCR2 receptor is 198 nM; against CXCR1 receptor, 1710 nM.
As for `COC(=O)[C@@H]1CCCN1C(=O)c1cccc(Nc2c(N[C@@H](c3ccc(C)o3)C3(C)COC3)c(=O)c2=O)c1O` [Example 9, methyl (S)-1-[2-hydroxy-3-(2-{[(R)-(5-methylfuran-2-yl)-(3-methyloxetan-3-yl)methyl]amino}-3,4-dioxocyclobut-1-enylamino)benzoyl]pyrrolidine-2-carboxylate], the concentration for half-maximal inhibition (IC50) against CXCR2 receptor was found to be 60 nM; on CXCR1 receptor it was 666 nM.
For `Cc1ccc(C(Nc2c(Nc3cccnc3O)c(=O)c2=O)C2(C)COC2)o1` (stereo not drawn) [Example 20, 3-(2-hydroxypyridin-3-ylamino)-4-{[(5-methylfuran-2-yl)-(3-methyloxetan-3-yl)methyl]amino}-cyclobut-3-ene-1,2-dione], the 50% inhibitory concentration (IC50) against CXCR2 receptor was 335 nM; against CXCR1 receptor it was 6620 nM.
On the same counts, the results for `Cc1ccc(C(Nc2c(Nc3cccc(C(=O)N4CCCC4)c3O)c(=O)c2=O)C2(C)COC2)o1` (stereo not drawn) [Example 14, 3-[2-hydroxy-3-(pyrrolidine-1-carbonyl)phenylamino]-4-{[(5-methylfuran-2-yl)-(3-methyloxetan-3-yl)methyl]amino}cyclobut-3-ene-1,2-dione] are 262 nM and 1300 nM.
In the case of `Cc1ccoc1C(Nc1c(Nc2cccc(C(=O)N(C)C)c2O)c(=O)c1=O)C1(C)COC1` (stereo not drawn) [Example 37b, 2-Hydroxy-N,N-dimethyl-3-(2-{[(3-methylfuran-2-yl)-(3-methyloxetan-3-yl)methyl]amino}-3,4-dioxocyclobut-1-enylamino)benzamide], the concentration for half-maximal inhibition (IC50) was 207 nM on CXCR2 receptor and 7690 nM on CXCR1 receptor.
As for `COC(=O)CN(C)C(=O)c1cccc(Nc2c(N[C@@H](c3ccc(C)o3)C3(C)COC3)c(=O)c2=O)c1O` [Example 51, methyl {[2-hydroxy-3-(2-{[(R)-(5-methylfuran-2-yl)-(3-methyloxetan-3-yl)methyl]amino}-3,4-dioxocyclobut-1-enylamino)benzoyl]methylamino}acetate], the results for the IC50 on CXCR2 receptor and against CXCR1 receptor were 72 nM and 650 nM, respectively.
As for `COc1ccc(Nc2c(NC(c3ccc(C)o3)C3(C)COC3)c(=O)c2=O)c(O)n1` (stereo not drawn) [Example 39, 3-(2-hydroxy-6-mèthoxypyridin-3-ylamino)-4-{[(5-methylfuran-2-yl)-(3-methyloxetan-3-yl)methyl]amino}cyclobut-3-ene-1,2-dione], the results for the IC50 against CXCR2 receptor and against CXCR1 receptor were 1040 nM and 10000 nM, respectively.
Take `Cc1ccc(C(Nc2c(Nc3cccc(C(=O)C(C)C)c3O)c(=O)c2=O)C2(C)COC2)o1` (stereo not drawn) [Example 12, 3-(2-hydroxy-3-isobutyrylphenylamino)-4-{[(5-methylfuran-2-yl)-(3-methyloxetan-3-yl)methyl]amino}cyclobut-3-ene-1,2-dione]: the IC50 against CXCR2 receptor was found to be 100 nM; at CXCR1 receptor, 10000 nM.
On to `Cc1ccc(C(Nc2c(Nc3cccc(C(=O)N4CC[C@H](O)C4)c3O)c(=O)c2=O)C2(C)COC2)o1` (stereo partly drawn) [Example 6, 3-[2-hydroxy-3-((S)-3-hydroxypyrrolidine-1-carbonyl)phenylamino]-4-{[(5-methylfuran-2-yl)-(3-methyloxetan-3-yl)methyl]amino}cyclobut-3-ene-1,2-dione], for which the IC50 was found to be 1090 nM against CXCR2 receptor and 2840 nM on CXCR1 receptor.
`CCC1(C(Nc2c(Nc3cccc(C(=O)N(C)C)c3O)c(=O)c2=O)c2ccc(C)o2)COC1` (stereo not drawn) [Example 3, 3-(2-{[(3-ethyloxetan-3-yl)-(5-methylfuran-2-yl)methyl]amino}-3,4-dioxocyclobut-1-enylamino)-2-hydroxy-N,N-dimethylbenzamide]: the IC50 came out at 106 nM at CXCR2 receptor and 1150 nM at CXCR1 receptor.
Take `Cc1coc(C(Nc2c(Nc3cccc(C(=O)N(C)C)c3O)c(=O)c2=O)C2(C)COC2)c1` (stereo not drawn) [Example 37a, 2-hydroxy-N,N-dimethyl-3-(2-{[(4-methylfuran-2-yl)-(3-methyloxetan-3-yl)methyl]amino}-3,4-dioxocyclobut-1-enylamino)benzamide]: the values for the IC50 against CXCR2 receptor and against CXCR1 receptor were 32 nM and 827 nM, respectively.

Values taken from patent publication US9090596B2, “Disubstituted 3,4-diamino-3-cyclobutene-1,2-dione compounds for use in the treatment of chemokine-mediated pathologies” (GALDERMA RESEARCH & DEVELOPMENT, priority 2011, dated 2015).
